Measured values taken from patent US11230541B2, “Heterocyclic compound” (Takeda Pharmaceutical Company Limited, priority 2017, dated 2022).

The molecules below were run against T1, NMDA receptor composed of four subunits including 2 sets of heterodimers of NR1 and NR2B (Homo sapiens, UniProt Q13224) (assay: NR2B Ca2+ influx assay (FLIPR, Fluo-4) in HEK293 cells expressing human GRIN1 and GRIN2B). Conditions: 10 μM final compound concentration, glutamic acid/glycine-induced Ca2+ influx.
T1 construct: host or cells: HEK293 (tetracycline-induced expression)
T1 sequence (Q13224 27-1484, other chains not shown): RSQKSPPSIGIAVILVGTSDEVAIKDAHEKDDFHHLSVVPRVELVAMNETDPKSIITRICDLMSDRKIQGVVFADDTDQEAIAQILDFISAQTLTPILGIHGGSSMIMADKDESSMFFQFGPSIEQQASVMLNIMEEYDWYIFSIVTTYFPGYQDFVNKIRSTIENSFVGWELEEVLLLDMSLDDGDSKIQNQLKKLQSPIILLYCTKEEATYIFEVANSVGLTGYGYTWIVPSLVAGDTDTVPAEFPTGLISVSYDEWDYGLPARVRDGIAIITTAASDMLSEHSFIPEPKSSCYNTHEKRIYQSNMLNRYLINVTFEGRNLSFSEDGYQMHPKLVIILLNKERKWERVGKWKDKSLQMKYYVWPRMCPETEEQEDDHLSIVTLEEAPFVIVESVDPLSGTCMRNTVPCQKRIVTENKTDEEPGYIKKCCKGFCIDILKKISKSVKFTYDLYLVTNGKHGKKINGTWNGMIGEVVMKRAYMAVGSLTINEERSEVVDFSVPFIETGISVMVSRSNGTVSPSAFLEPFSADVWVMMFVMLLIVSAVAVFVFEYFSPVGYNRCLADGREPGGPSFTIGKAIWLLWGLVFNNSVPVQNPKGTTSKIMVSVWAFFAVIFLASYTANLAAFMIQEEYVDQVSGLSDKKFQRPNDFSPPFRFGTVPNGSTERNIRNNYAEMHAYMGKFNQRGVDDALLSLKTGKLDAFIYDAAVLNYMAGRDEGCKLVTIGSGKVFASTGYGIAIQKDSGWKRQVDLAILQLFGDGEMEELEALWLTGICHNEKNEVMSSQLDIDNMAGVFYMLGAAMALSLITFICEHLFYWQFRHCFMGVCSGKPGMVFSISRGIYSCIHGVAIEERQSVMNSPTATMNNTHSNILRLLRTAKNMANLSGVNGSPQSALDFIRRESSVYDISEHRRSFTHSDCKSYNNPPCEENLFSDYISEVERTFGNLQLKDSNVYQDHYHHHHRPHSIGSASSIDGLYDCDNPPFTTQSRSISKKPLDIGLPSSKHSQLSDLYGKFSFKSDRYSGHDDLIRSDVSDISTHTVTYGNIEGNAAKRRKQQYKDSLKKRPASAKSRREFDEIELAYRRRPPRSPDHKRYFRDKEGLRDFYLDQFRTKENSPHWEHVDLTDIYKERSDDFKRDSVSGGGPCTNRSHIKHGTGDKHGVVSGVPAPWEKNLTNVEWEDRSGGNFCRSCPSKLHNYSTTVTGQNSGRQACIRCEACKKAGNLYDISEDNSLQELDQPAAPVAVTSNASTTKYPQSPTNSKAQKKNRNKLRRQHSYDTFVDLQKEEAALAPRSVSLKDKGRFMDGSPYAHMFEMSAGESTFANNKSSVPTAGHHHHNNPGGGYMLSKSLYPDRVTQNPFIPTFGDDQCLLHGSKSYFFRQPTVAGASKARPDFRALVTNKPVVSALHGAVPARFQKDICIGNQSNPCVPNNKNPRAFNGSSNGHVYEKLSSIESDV
Type: cell-based
Source text: To confirm the “antagonistic action on an NMDA receptor containing the NR2B subunit” of the compound of the present invention, human embryonic kidney cell expressing the “NMDA receptor composed of four subunits including 2 sets of heterodimers of NR1 and NR2B”, specifically HEK293 cell expressing human glutamate ionotropic receptor NMDA type subunit 1 (GRIN1) and human glutamate ionotropic receptor NMDA type subunit 2B (GRIN2B), was used and the activation suppressive effect on the receptors was measured.
As an index of the NMDA receptor activation, intracellular calcium ion (Ca^2+) influx caused by the binding of glycine and glutamic acid with NR1 and NR2B, respectively, was used. HEK293 cells were purchased from ChanTest. The cells were cultured in a DMEM/F-12 (COSMO BIO, 10-092-CM) medium added with 10% FBS′(fetal bovine serum, AusGene), 100 units/mL penicillin, 100 μg/mL streptomycin, 500 μg/mL neomycin, 100 μg/mL Zeocin, 5 μg/mL Blasticidin at 37° C., 5% CO2. The cells were detached from flask with trypsin the day before the assay, suspended in a seeding medium (DMEM (Invitrogen, 31053) added with 10% FBS, 100 units/mL penicillin, 100 μg/mL streptomycin) at 8×10^5 cells/mL, seeded by 25 μL per well in a 384-well plate (Falcon, 356663) at 20000 cells/well, and cultured overnight in an incubator. On the day of the assay, tetracycline (Wako Pure Chemical Industries, Ltd., 209-16561) was diluted with the seeding medium at 2 μg/mL, added at […] to the plate seeded with the cells, and cultured for 2 hr in an incubator. Thereafter, the medium was removed, and the cells were washed with 50 μL/well assay buffer (137 mM NaCl, 4 mM KCl, 1.8 mM CaCl2, 10 mM HEPES (pH 7.2), 10 mM Glucose, 0.1% BSA). Then, a loading buffer (assay buffer added with 2.5 uM Fluo-4AM, 2 mM Amaranth, 1 mM Tartrazine) was added at 25 μL/well, and loading was performed in the incubator for 30 min, and at room temperature for 15 min. A solution (25 μL) of the Example compound diluted with the above-mentioned assay buffer at 30 μM (final concentration 10 μM) was added, and the cells were stood for 15 min at room temperature. Using FLIPR (Molecular Devices), 25 μL of an assay buffer containing 30 μM glutamic acid, 30 μM glycine was added, and the fluorescence signal was measured every 3 seconds for 5 min. The inhibitory activity was calculated as a relative activity value (inhibitory rate) that inhibits 100% of the cumulative value of the fluorescence value of a well added with a buffer free of glutamic acid, glycine, relative to the cumulative value of the fluorescence value of each well.

inhibitory rate (10 μM compound concentration)	SMILES
89	COc1ccc2ncn(C)c2c1CNC(=O)c1ccc(C(F)(F)F)s1 [Example 50, N-((6-methoxy-1-methyl-1H-benzimidazol-7-yl)-methyl)-5-(trifluoro-methyl)thiophene-2-carboxainide]

Same assay, conditions: HEK293, 10 μM final compound concentration, glutamic acid/glycine-induced Ca2+ influx, read-out: inhibitory rate (10 μM compound concentration)

inhibition at 10 µM [%]	SMILES
91	COc1ccc2ncn(C)c2c1CNC(=O)c1ccc(F)c(Cl)c1 [Example 37, 3-chloro-4-fluoro-N-((6-methoxy-1-methyl-1H-benzimidazol-7-yl)methyl)benzamide]
91	COc1ccc2ncn(C)c2c1CNC(=O)c1ccc(C)c(Cl)c1 [Example 38, 3-chloro-N-((6-methoxy-1-methyl-1H-benzimidazol-7-yl)-methyl)-4-methylbenzamide]
91	COc1ccc2ncn(C)c2c1CNC(=O)c1ccc(Cl)c(C)c1 [Example 39, 4-chloro-N-((6-methoxy-1-methyl-1H-benzimidazol-7-yl)-methyl)-3-methyl-benzamide]
89	COc1ccc2ncn(C)c2c1CNC(=O)c1ccc(F)c(C(F)(F)F)c1 [Example 40, 4-fluoro-N-((6-methoxy-1-methyl-1H-benzimidazol-7-yl)methyl)-3-(trifluoro-methyl)benzamide]
90	COc1ccc2ncn(C)c2c1CNC(=O)c1cc(F)c(F)c(F)c1 [Example 41, 3,4,5-trifluoro-N-((6-methoxy-1-methyl-1H-benzimidazol-7-yl)methyl)benzamide]
87	COc1ccc2ncn(C)c2c1CNC(=O)c1cc(Cl)cs1 [Example 42, 4-chloro-N-((6-methoxy-1-methyl-1H-benzimidazol-7-yl)-methyl)thiophene-2-carboxamide]
61	COc1ccc2ncn(C)c2c1CNC(=O)c1cc(C)cs1 [Example 43, N-((6-methoxy-1-methyl-1H-benzimidazol-7-yl)-methyl)-4-methylthiophene-2-carboxamide]
89	COc1ccc2ncn(C)c2c1CNC(=O)c1ccc(Cl)c(F)c1 [Example 44, 4-chloro-3-fluoro-N-((6-methoxy-1-methyl-1H-benzimidazol-7-yl)methyl)benzamide]
64	COc1cc(C(=O)NCc2c(OC)ccc3ncn(C)c23)ccc1Cl [Example 45, 4-chloro-3-methoxy-N-((6-methoxy-1-methyl-1H-benzimidazol-7-yl)methyl)benzamide]
68	COc1cc(C(=O)NCc2c(OC)ccc3ncn(C)c23)ccc1F [Example 46, 4-fluoro-3-methoxy-N-((6-methoxy-1-methyl-1H-benzimidazol-7-yl)methyl)benzamide]
85	COc1ccc2ncn(C)c2c1CNC(=O)c1ccc(C)c(C(F)(F)F)c1 [Example 47, N-((6-methoxy-1-methyl-1H-benzimidazol-7-yl)-methyl)-4-methyl-3-(trifluoromethyl)benzamide]
84	COc1ccc(C(=O)NCc2c(OC)ccc3ncn(C)c23)s1 [Example 48, 5-methoxy-N-((6-methoxy-1-methyl-1H-benzimidazol-7-yl)methyl)thiophene-2-carboxamide]
69	COc1ccc2ncn(C)c2c1CNC(=O)c1cc(Cl)c(F)c(Cl)c1 [Example 49, 3,5-dichloro-4-fluoro-N-((6-methoxy-1-methyl-1H-benzimidazol-7-yl)methyl)benzamide]
90	COc1ccc2ncn(C)c2c1CNC(=O)c1ccc(C(F)(F)F)c(Cl)c1 [Example 51, 3-chloro-N-((6-methoxy-1-methyl-1H-benzimidazol-7-yl)-methyl)-4-(trifluoro-methyl)benzamide]
91	COc1ccc2ncn(C)c2c1CNC(=O)c1ccc(OC(F)(F)F)c(F)c1 [Example 52, 3-fluoro-N-((6-methoxy-1-methyl-1H-benzimidazol-7-yl)methyl)-4-(trifluoro-methoxy)benzamide]
91	COc1ccc2ncn(C)c2c1CNC(=O)c1cc(Cl)c(Cl)s1 [Example 53, 4,5-dichloro-N-((6-methoxy-1-methyl-1H-benzimidazol-7-yl)-methyl)thiophene-2-carboxamide]
85	COc1ccc2ncn(C)c2c1CNC(=O)c1cc(C)c(F)c(F)c1 [Example 54, 3,4-difluoro-N-((6-methoxy-1-methyl-1H-benzimidazol-7-yl)-methyl)-5-methyl-benzamide]

inhibition at 10 µM [%]	SMILES
90	COc1ccc2ncn(C)c2c1CNC(=O)c1cc(F)c(Cl)c(Cl)c1 [Example 55, 3,4-dichloro-5-fluoro-N-((6-methoxy-1-methyl-1H-benzimidazol-7-yl)methyl)benzamide]
93	COc1ccc2ncn(C)c2c1CNC(=O)c1ccc(OC(F)(F)F)nc1 [Example 56, ((6-methoxy-1-methyl-1H-benzimidazol-7-yl)methyl)-6-(trifluoro-methoxy)nicotinamide]
91	COc1ccc2ncn(C)c2c1CNC(=O)c1cnc(OC)c(Cl)c1 [Example 57, 5-chloro-6-methoxy-N-((6-methoxy-1-methyl-1H-benzimidazol-7-yl)methyl)nicotinamide]
93	CCOc1ncc(C(=O)NCc2c(OC)ccc3ncn(C)c23)cc1Cl [Example 58, 5-chloro-6-ethoxy-N-((6-methoxy-1-methyl-1H-benzimidazol-7-yl)methyl)nicotinamide]
94	COc1ccc2ncn(C)c2c1CNC(=O)c1cnc(OC(F)F)c(F)c1 [Example 59, 6-(difluoromethoxy)-5-fluoro-N-((6-methoxy-1-methyl-1H-benzimidazol-7-yl)-methyl)nicotinamide]
94	Cc1ccc2ncn(C)c2c1CNC(=O)c1ccc(OC(F)(F)F)c(Cl)c1 [Example 60, 3-chloro-N-((1,6-dimethyl-1H-benzimidazol-7-yl)-methyl)-4-(trifluoro-methoxy)benzamide]
94	O=C(NCc1c(C2CC2)ccc2[nH]ncc12)c1ccc(C(F)(F)F)cc1 [Example 61, N-((5-cyclopropyl-1H-indazol-4-yl)methyl)-4-(trifluoromethyl)-benzamide]
94	O=C(NCc1c(C2CC2)ccc2[nH]ncc12)c1ccc(OC(F)(F)F)cc1 [Example 62, N-((5-cyclopropyl-1H-indazol-4-yl)methyl)-4-(trifluoromethoxy)-benzamide]
89	Cc1csc(C(=O)NCc2c(C3CC3)ccc3[nH]ncc23)c1 [Example 63, N-((5-cyclopropyl-1H-indazol-4-yl)methyl)-methylthiophene-2-carboxamide]
91	Cc1ccc(C(=O)NCc2c(C3CC3)ccc3[nH]ncc23)s1 [Example 64, N-((5-cyclopropyl-1H-indazol-4-yl)methyl)-methylthiophene-2-carboxamide]
90	O=C(Cc1cccs1)NCc1c(C2CC2)ccc2[nH]ncc12 [Example 65, N-((5-cyclopropyl-1H-indazol-4-yl)methyl)-2-(2-thienyl)acetamide]
91	Cc1cc(C(=O)NCc2c(C3CC3)ccc3[nH]ncc23)cs1 [Example 66, N-((5-cyclopropyl-1H-indazol-4-yl)methyl)-methylthiophene-3-carboxamide]
92	COc1ccc(C(=O)NCc2c(C3CC3)ccc3[nH]ncc23)s1 [Example 67, N-((5-cyclopropyl-1H-indazol-4-yl)methyl)-methoxythiophene-2-carboxamide]
86	COc1csc(C(=O)NCc2c(C3CC3)ccc3[nH]ncc23)c1 [Example 68, N-((5-cyclopropyl-1H-indazol-4-yl)methyl)-methoxythiophene-2-carboxamide]
93	O=C(NCc1c(C2CC2)ccc2[nH]ncc12)c1csc(Cl)c1 [Example 69, 5-chloro-N-((5-cyclopropyl-1H-indazol-4-yl)methyl)thiophene-3-carboxamide]
92	O=C(NCc1c(C2CC2)ccc2[nH]ncc12)c1cc(Cl)cs1 [Example 70, 4-chloro-N-((5-cyclopropyl-1H-indazol-4-yl)methyl)thiophene-2-carboxamide]
